Molecular target: T1, human GPR17 receptor (Homo sapiens, UniProt Q13304)
T1 construct: host or cells: HEK-293
Test: Calcium mobilization functional assay (Fluo-8, FLIPR TETRA) in HEK-293 hGPR17 (Gα-q assay)
Format: cell-based
Details: antagonism of MDL29,951 (~EC80) induced Ca2+ signal; cell line (HEK-293 hGPR17 or HEK-293 Suchi5 hGPR17) not given
Experimental: HEK-293 cells stably expressing the human GPR17 receptor (HEK-293 hGPR17) developed by Axxam (Bresso, Milan, Italy) were cultured at 37° C. in a humidified atmosphere of 5% CO2. Cells were grown in EMEM supplemented with FBS (10%), Penicillin/Streptomycin (1%), Ultraglutamine I (2 mM), puromycin (0.6 μg/mL), G418 (0.4 mg/mL), zeocin (50 μg/mL). This cell line was used to test the compound antagonistic activity by monitoring the Gα-q based signaling. Signaling via Gα-q leads to mobilization of calcium from internal stores. Elevated intracellular calcium levels can then be measured with calcium-sensitive fluorescent dyes (e.g., Fluo 8-No Wash Dye).
GPR17 activation leads to both an increase in intracellular calcium (via Gα-q) and a decrease in cAMP levels (via Gα-i), implicating that both of these pathways play a role for in vivo function.
Experiments were performed using the below cell lines, as described in part 1: • HEK-293 hGPR17 (used to study the compounds acting via Gα-q pathway) • HEK-293 Suchi5 hGPR17 (used to study the compounds acting via Gα-i pathway, where the Gα-i signaling is switched to a Gα-q signaling thanks to the Gα-i/q chimera Suchi5)
GPR17 activation was able to induce an endoplasmic reticulum calcium (Ca^2+) store release in cytosol which could be measured using the fluorescent Ca^2+ sensitive dye Fluo-8 No Wash Dye as readout.
HEK-293 hGPR17 and HEK-293 Suchi5 hGPR17 were seeded at a density of 15,000 cells/well into poly-D-lysine coated black 384-well plates with clear bottom in complete medium. Cells were incubated overnight at 37° C. in a humidified atmosphere of 5% CO2. Twenty-four hours after seeding, the culture medium was carefully removed manually and the cells were loaded for 60 minutes at room temperature with the Ca^2+ sensitive Fluo-8 No Wash Dye, according to manufacturer's instructions. Cells were then assayed using a fluorometric imaging plate reader (FLIPR^TETRA). Fluorescence (excitation: 470-495 nm; emission: 515-575 nm) was recorded during the experiment. […] After twenty minutes, a second injection of MDL29,951 at ˜EC80 (500 nM for HEK-293 hGPR17 and 2 nM for HEK-293 Suchi5 hGPR17) in assay buffer was performed at the FLIPR^TETRA and the signal of the emitted fluorescence was recorded for additional 2 minutes. All the compound injections and incubations were performed in duplicate. For data quality and data analysis the Screener® 16.0.6 (Genedata) software was used.

T1 sequence (Q13304 whole entry): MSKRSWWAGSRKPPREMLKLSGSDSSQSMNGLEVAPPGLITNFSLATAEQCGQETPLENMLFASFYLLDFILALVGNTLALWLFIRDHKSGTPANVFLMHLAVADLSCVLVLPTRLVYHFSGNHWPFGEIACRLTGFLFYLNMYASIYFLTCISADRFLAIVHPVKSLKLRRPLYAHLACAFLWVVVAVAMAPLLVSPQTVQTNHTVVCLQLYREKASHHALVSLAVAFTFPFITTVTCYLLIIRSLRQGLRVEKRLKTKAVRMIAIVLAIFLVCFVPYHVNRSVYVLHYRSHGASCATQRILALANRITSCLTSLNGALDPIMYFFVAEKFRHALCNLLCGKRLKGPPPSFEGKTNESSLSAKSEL

| IC50 [nM] | Compound |
| --- | --- |
| < 500 | O=S(=O)(Nc1cc(F)c(C(F)(F)F)cc1F)c1c[nH]c(-c2ccccc2F)c1 [Cpd 073, N-[2,5-difluoro-4-(trifluoromethyl)phenyl]-5-(2-fluorophenyl)-1H-pyrrole-3-sulfonamide] |
| < 500 | N#Cc1cc(F)c(NS(=O)(=O)c2c[nH]c(-c3ccccc3F)c2)cc1F [Cpd 074, N-(4-cyano-2,5-difluoro-phenyl)-5-(2-fluorophenyl)-1H-pyrrole-3-sulfonamide] |
| < 500 | Cc1cc(F)c(NS(=O)(=O)c2c[nH]c(-c3ccccc3F)c2)cc1F [Cpd 075, N-(2,5-difluoro-4-methyl-phenyl)-5-(2-fluorophenyl)-1H-pyrrole-3-sulfonamide] |
| < 500 | N#Cc1cc(F)c(NS(=O)(=O)c2c[nH]c(-c3ccccc3)c2F)cc1F [Cpd 076, N-(4-cyano-2,5-difluoro-phenyl)-4-fluoro-5-phenyl-1H-pyrrole-3-sulfonamide] |
| 500 to 5000 | N#Cc1cc(F)c(NS(=O)(=O)c2cc(-c3ccccc3)[nH]c2F)cc1F [Cpd 077, N-(4-cyano-2,5-difluoro-phenyl)-2-fluoro-5-phenyl-1H-pyrrole-3-sulfonamide] |
| 5000 to 50000 | Cn1nccc1-c1cc(S(=O)(=O)Nc2ccc(C#N)cc2F)c[nH]1 [Cpd 078, N-(4-cyano-2-fluoro-phenyl)-5-(2-methylpyrazol-3-yl)-1H-pyrrole-3-sulfonamide] |
| 500 to 5000 | N#Cc1ccc(NS(=O)(=O)c2c[nH]c(-c3ccccc3C(F)(F)F)c2)c(F)c1 [Cpd 079, N-(4-cyano-2-fluoro-phenyl)-5-[2-(trifluoromethyl)phenyl]-1H-pyrrole-3-sulfonamide] |
| 500 to 5000 | COCc1ccccc1-c1cc(S(=O)(=O)Nc2ccc(C#N)cc2F)c[nH]1 [Cpd 080, N-(4-cyano-2-fluoro-phenyl)-5-[2-(methoxymethyl)phenyl]-1H-pyrrole-3-sulfonamide] |
| 500 to 5000 | Cn1ccc(-c2cc(S(=O)(=O)Nc3ccc(C#N)cc3F)c[nH]2)n1 [Cpd 081, N-(4-cyano-2-fluoro-phenyl)-5-(1-methylpyrazol-3-yl)-1H-pyrrole-3-sulfonamide] |
| < 500 | Cc1cccc(F)c1-c1cc(S(=O)(=O)Nc2ccc(C#N)cc2F)c[nH]1 [Cpd 082, N-(4-cyano-2-fluoro-phenyl)-5-(2-fluoro-6-methyl-phenyl)-1H-pyrrole-3-sulfonamide] |
| < 500 | COc1cccc(F)c1-c1cc(S(=O)(=O)Nc2ccc(C#N)cc2F)c[nH]1 [Cpd 083, N-(4-cyano-2-fluoro-phenyl)-5-(2-fluoro-6-methoxy-phenyl)-1H-pyrrole-3-sulfonamide] |
| < 500 | COc1ccc(F)c(-c2cc(S(=O)(=O)Nc3ccc(C#N)cc3F)c[nH]2)c1 [Cpd 084, N-(4-cyano-2-fluoro-phenyl)-5-(2-fluoro-5-methoxy-phenyl)-1H-pyrrole-3-sulfonamide] |
| 500 to 5000 | Cc1cccc(C)c1-c1cc(S(=O)(=O)Nc2ccc(C#N)cc2F)c[nH]1 [Cpd 085, N-(4-cyano-2-fluoro-phenyl)-5-(2,6-dimethylphenyl)-1H-pyrrole-3-sulfonamide] |
| 500 to 5000 | COc1ccc(-c2cc(S(=O)(=O)Nc3ccc(C#N)cc3F)c[nH]2)c(F)c1 [Cpd 086, N-(4-cyano-2-fluoro-phenyl)-5-(2-fluoro-4-methoxy-phenyl)-1H-pyrrole-3-sulfonamide] |
| 500 to 5000 | COc1cccc(-c2cc(S(=O)(=O)Nc3ccc(C#N)cc3F)c[nH]2)c1F [Cpd 087, N-(4-cyano-2-fluoro-phenyl)-5-(2-fluoro-3-methoxy-phenyl)-1H-pyrrole-3-sulfonamide] |
| < 500 | N#Cc1ccc(NS(=O)(=O)c2c[nH]c(-c3cc(F)c(F)cc3F)c2)c(F)c1 [Cpd 088, N-(4-cyano-2-fluoro-phenyl)-5-(2,4,5-trifluorophenyl)-1H-pyrrole-3-sulfonamide] |
| < 500 | COc1nccc(F)c1-c1cc(S(=O)(=O)Nc2ccc(C#N)cc2F)c[nH]1 [Cpd 089, N-(4-cyano-2-fluoro-phenyl)-5-(4-fluoro-2-methoxy-3-pyridyl)-1H-pyrrole-3-sulfonamide] |

— patent publication US20240299385A1 (ReWind Therapeutics NV, priority 2021, published 2024)
